According to US11318113B2, “Compounds for the treatment of diseases linked to mitochondrial reactive oxygen species (ROS) production” (OP2 DRUGS, priority 2015, dated 2022):

What was measured:
[1] = test system: TH-positive neurons in the substantia nigra of MPTP-treated mice; test: Sub-chronic MPTP mouse model of Parkinson's disease, TH-positive neuron count; assay type: in vivo; conditions: 5 mg/kg ip, 11 consecutive days; p<0.01
Procedure: In this study, the potential neuroprotective effects of AOL were assessed by counting the number of tyrosine hydroxylase (TH)-positive neurons in the substantia nigra (SN) in the sub-chronic 1-methyl-4-phenyl-1,2,3,6-tetrahydropyridine (MPTP) mouse model of Parkinson's disease. Mice were treated with AOL (5 mg/kg; ip) or vehicle for 11 consecutive days. MPTP (20 mg/kg; ip) or saline was administered on treatment days 4-8. All mice were killed on day 12 following final administration of treatment.
For vehicle conditions, the test item was dissolved in 0.5% DMSO/0.95% Tween 20 in saline while AOL was administered intraperitoneally (i.p.) at the dose of 5 mg/kg. […]
Unbiased stereological analysis was used to estimate the number of TH-immunopositive (TH+) neurons (Mercator, Explora Nova, La Rochelle, France). The boundaries of the SN were determined by examining the size and shape of the different TH+ neuronal groups. The volume was calculated by using the formula: V=ΣS td; where ΣS is the sum of surface areas, t is the average section thickness and d is the number of slices between two consecutive sections measured. […] The following formula was used to estimate the number of TH+ neurons: N=V(SN) (ΣQ−/ΣV(dis)); where N is the estimation of cell number, V is the volume of the SN, ΣQ− is the number of cells counted in the dissectors, and ΣV(dis) is the total volume of all the dissectors. […]

[2] = test system: isolated perfused rat heart; test: Global ischaemia/reperfusion of isolated perfused (Langendorff) rat heart; conditions: 10 μM AOL pretreatment, 30 min ischaemia
Procedure: The consequences of 30 minutes' global ischaemia followed by 120 minutes' reperfusion (FIG. 11) on contractility and tissue viability were studied on isolated perfused rat heart pretreated or not (control vehicle) with 10 μM AOL.
All procedures conformed to the UK Animals (Scientific Procedures) Act 1986 and the Guide for the Care and Use of Laboratory Animals published by the National Institutes of Health (NIH Publication No. 85-23. revised 1996). Male Wistar rats (250-300 g) were anesthetized by 3% isoflurane, heparinized and euthanized by a lethal IP injection of pentobarbital (130 mg/kg). Hearts (˜0.95 g of fresh weight) were rapidly harvested and placed into ice cold Krebs-Henseleit buffer containing (in mmol/L): NaCl 118, NaHCO3 25, KCl 4.8, KH2PO4 1.2, MgSO4 1.2, glucose 11 and CaCl2 1.8; gassed with 95% O2/5% CO2 at 37° C. (pH 7.4). Langendorff heart perfusions were performed (Garlid, K. D. et al., 2006. Am. J. Physiol. Heart Circ. Physiol. 291(1):H152-60) and contractility was assessed by continuous measurement of the rate pressure product (RPP) thanks to a balloon placed in the left ventricle and connected to a pressure transducer. Hearts were perfused in a constant flow mode (12 mL/min). […]

SMILES: COc1ccc(-c2cc(=S)ss2)cc1 [AOL, 5-(4-methoxyphenyl)-3H-1,2-dithiole-3-thione]
- increase in number of TH+ cells in the SN compared to vehicle in MPTP-treated mice [1]: 44%
- infarcted tissue rescued (TTC staining) ([2]; 120 min reperfusion): about 50%
- heart contractility (rate pressure product, RPP) versus control hearts ([2]; after 2 hours of reperfusion): about three times higher
